Test: Solubility of ferric meglumine / meglumine in solvents

CNC[C@H](O)[C@@H](O)[C@H](O)[C@H](O)CO [Meglumine, N-Methyl-D-glucamine]
solubility in water: soluble
